Experimental data as given in US12295957B2, “Ascorbic acid and quinone compounds in combination with an antiparasitic agent for treating a parasitic disease” (IC-MedTech Corp., priority 2018, dated 2025).
Entries after “also recorded” stand apart in the source; their conditions may differ.

How the values were obtained:
Assay type in all cases: in vivo, BALB/c mice
Trypanosoma cruzi [1] = test: Survival/mortality of mice with acute Trypanosoma cruzi infection; settings: for mortality: vitamin C 200 mg/kg or vitamin K3 3.5 mg/kg alone, orally once a day
Procedure: (§1) Male BALB/c mice (approximately 7-8 weeks) were infected intraperitoneally with 10^4 parasites per mouse. Treatment started 24 hours after infection. The administration of vitamin C (i.e., L-ascorbic acid), vitamin K3 (i.e., 2-methyl-1,4-naphthoquinone or menadione), APATONE®, and benznidazole, alone or in combination, were administered once a day orally in different concentrations.
(§2) The mice were divided into the following groups and each group contained seven mice: • i. infected and not treated; • ii. infected and treated with 200 mg/kg of vitamin C; • iii. infected and treated with 3.5 mg/kg of vitamin K3; • iv. infected and treated with APATONE® (200 mg/kg of vitamin C and 3.5 mg/kg of vitamin K3); • v. infected and treated with APATONE® (200 mg/kg of vitamin C and 3.5 mg/kg of vitamin K3) plus 5 mg/kg benznidazole; • vi. infected and treated with benznidazole at 5 mg/kg; • vii. infected and treated with benznidazole at 100 mg/kg; and • viii. not infected and not treated.
(§3) Parasitemia levels were individually checked every day starting from 3 days postinfection (dpi) over a 21-day period by direct microscopic analysis of 5 μL blood drawn by puncture of the tail tip of each mouse. The parasites present in 50 fields were counted in 40× objective. Mortality was checked daily until 21 dpi and was expressed as a percentage of survival. All assays were carried out after the approval of the Ethical Conduct on the use of Animals in Experiments (CEAE) of UE111, protocol number CEUA 6642060717.

IL-6 = test: Heart cytokine level (cytokine bead array, flow cytometry) in T. cruzi infected mice: IL-6
Procedure: (§4) Cytokine analysis was performed on the mice infected with T. cruzi. A cytokine bead (CBA) kit was used to quantify the levels of Th1 cytokines (IL-2, TNF-α, and INF-γ), Th2 (IL-4, IL-5, and IL-10A), and Th17 (IL-17) by flow cytometry. Seven bead populations with different fluorescence intensities were conjugated to a specific capture antibody for each cytokine, mixed to the CBA and read […] FL3 channel of a FACSCalibur flow cytometer. The populations of beads were visualized according to their respective fluorescence intensities: from less bright to brighter.
(§5) Acquisition tubes were prepared with: 50 μL of a sample, 50 μL of beads, and 50 μL of Th1/Th2/Th17 PE (Mouse Th1/Th2/Th17 PE Detection Reagent/1 vial, 4 mL). The same procedure was performed to obtain a standard curve. The samples in the tubes were homogenized and incubated for three hours at room temperature in dark. The data acquisition and analysis were performed using a FACSCalibur flow cytometer equipped with a CellQuest software.
(§6) The levels of proinflammatory (IL-6, TNF-α, INF-γ, IL-2, and IL-17) and anti-inflammatory cytokines (IL-4 and IL-10) in heart (FIG. 3) in blood were determined on the mice infected with T. cruzi. […] However, the levels of IL-6 and TNF-α in this group were still high compared with the uninfected and untreated group. […] Thus, it is likely that the high levels of IL-6 and TNF-α in the mice infected with T. cruzi and treated with benznidazole (5 mg) are related to the inflammatory process induced by the parasite in the bloodstream. […] Thus, it is likely that the high levels of IL-6 and TNF-α in the mice infected with T. cruzi and treated with benznidazole (100 mg) are related to the proinflammatory activity of benznidazole (a side effect). […] The levels of IL-6, TNF-α, and IFN-γ in the group treated with APATONE® and benznidazole (5 mg/kg/day) in combination are similar to the levels of IL-6, TNF-α and IFN-γ in the uninfected and untreated group.

TNF-α = test: Heart cytokine level (cytokine bead array, flow cytometry) in T. cruzi infected mice: TNF-α
Procedure: as §4, §5, §6

Trypanosoma cruzi [2] = test: Parasitemia by direct microscopic count of blood in mice infected with Trypanosoma cruzi; settings: 3-21 dpi
Procedure: as §1, §2
as §3, with “All assays were carried out after the approval of the Ethical Conduct on the use of Animals in Experiments (CEAE) of UE111, protocol number CEUA 6642060717.” left out

[3] = benznidazole alone at 5 mg/kg, seven mice per group, until 21 dpi

Row | Structure (SMILES) | mortality (Trypanosoma cruzi [1]) | mice remaining (Trypanosoma cruzi [1]; [3]) | mice that died (Trypanosoma cruzi [1]; [3]) | mice that died (Trypanosoma cruzi [1]; benznidazole alone at 100 mg/kg, until 21 dpi) | level of IL-6 in heart compared with the infected and untreated group (IL-6; benznidazole at 5 mg) | level of IL-6 in heart compared with the uninfected and untreated group (IL-6; benznidazole at 5 mg) | level of IL-6 in heart compared with the infected and untreated group (IL-6; benznidazole at 100 mg) | level of IL-6 in heart compared with the uninfected and untreated group (IL-6; benznidazole at 100 mg) | level of TNF-α in heart compared with the infected and untreated group (TNF-α; benznidazole at 5 mg) | level of TNF-α in heart compared with the uninfected and untreated group (TNF-α; benznidazole at 5 mg) | level of TNF-α in heart compared with the infected and untreated group (TNF-α; benznidazole at 100 mg) | level of TNF-α in heart compared with the uninfected and untreated group (TNF-α; benznidazole at 100 mg) | parasites in the bloodstream (parasitemia) (Trypanosoma cruzi [2]; benznidazole alone at 5 mg/kg orally once a day, 5 mg/kg) | parasites in the bloodstream (parasitemia) (Trypanosoma cruzi [2]; benznidazole alone at 100 mg/kg orally once a day, 100 mg/kg)
1 | O=C1O[C@H]([C@@H](O)CO)C(O)=C1O [vitamin C, L-ascorbic acid] | died from day 14 |  |  |  |  |  |  |  |  |  |  |  |  | 
2 | O=C(Cn1ccnc1[N+](=O)[O-])NCc1ccccc1 [benznidazole] |  | 4 mice | Three mice died | No mice died | significant decrease | still high | significant decrease | still high | significant decrease | still high | significant decrease | still high | did not decrease the amount of parasites | no parasite was observed; also recorded: no parasite detected
3 | CC1=CC(=O)c2ccccc2C1=O [vitamin K3, 2-methyl-1,4-naphthoquinone] | died from day 14 |  |  |  |  |  |  |  |  |  |  |  |  | 
